These results are taken from patent US20220251079A1, “BENZO[B][1,8]NAPHTHYRIDINE ACETIC ACID DERIVATIVES AND METHODS OF USE” (STINGTHERA, INC., priority 2019, published 2022).

Bounds are passed on as bounds.

The target of assay [1] is T1, human STING protein (140-379) (Homo sapiens, UniProt Q86WV6, H232R).
T1 construct: 6XHIS-SUMO-hSTING (140-379); made in house; host or cells: BL-21(DE3) E. coli, pET vector
Kind of assay: Radiometric filtration binding competition assay (WT_FBA_HIS-SUMO-hSWAT). To be noted: read-out: WT-hSWAT IC50. The procedure, abridged:
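Compounds (2-fold dilutions, 8 points, top 300 μM) were preincubated for 30 min with 0.5 μM recombinant C-terminal STING domain, human residues 140-379 or mouse residues 139-328, His-SUMO tagged. Displacement of a tritium-labelled probe was read by filtration and scintillation counting. Dose-response fits gave IC50, then Ki.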

Assay [2] deals with T2, mouse STING protein (139-328) (Mus musculus, UniProt Q3TBT3).
T2 construct: mouse STING protein (139-328); made in house
T2 sequence (Q3TBT3 139-328): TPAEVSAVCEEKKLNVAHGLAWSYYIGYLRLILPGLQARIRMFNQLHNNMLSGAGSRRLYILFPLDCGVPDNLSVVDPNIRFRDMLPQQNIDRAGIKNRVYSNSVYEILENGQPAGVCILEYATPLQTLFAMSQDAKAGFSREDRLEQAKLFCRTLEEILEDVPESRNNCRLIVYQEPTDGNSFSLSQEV
Kind of assay: Radiometric filtration binding competition assay (MOUSE_FBA_HIS-SUMO-mSWAT). To be noted: read-out: WT-mSWAT IC50. How it is done:
A radiometric filtration binding competition assay was performed to quantify the binding affinity of compounds of the present application for the human or mouse STING protein, or associated HAQ human isoform. The competition format filtration binding assay detects the ability of small molecule compounds from binding to and inhibiting the subsequent binding of a tritiated [H3] […] The resulting dose response was fit by non-linear regression to determine an IC50 value, from which a Ki value for each compound was extrapolated.
Briefly, the recombinant C-terminal ligand binding domain of the human STING protein (140-379) or mouse STING protein (139-328) [0.5 μM] was incubated in the presence of a compound of the present application (8 point, 2 fold dilution starting at 300 μM) for 30 min or under control conditions. […] The resulting complexes were then filtered, dried, and scintillation fluid was added and the remaining radio signal was measured to determine the degree of compound ligand inhibition. This assay format was optimized for both the WT and HAQ isoforms of the human protein and the mouse orthologue protein.
Parameters optimized: • a. Form of protein: 6×HIS-SUMO tag or untagged • b. Concentration of target protein: Minimum concentration that achieved >80 max signal • c. Assay DMSO concentration: 10%-0.1% • d. […]

Assay [3] concerns the target T3, hSTING-R232 (Homo sapiens, UniProt Q86WV6, H232R).
T3 construct: recombinant mouse or human STING protein (aa140-379); 6xHis-SUMO elsewhere) (cleaved yes); made in house
The experiment in a line: STING Differential Scanning Fluorimetry (DSF) assay, human. The assay is classed as binding. To be noted: human STING R232-WT, 5 μM protein. The procedure, abridged:
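Purified STING C-terminal domain (aa140-379, R232), human or mouse, at 5 μM in 100 mM NaCl, 30 mM HEPES pH 7.5 with SYBR Orange, was heated at 0.5° C./min. Tm came from dF/dT; ΔTm and FC50 were derived from an 11-point 2-fold series from 300 μM, in duplicate.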
For orientation: DSF heats the sample and reads unfolding from a dye or from intrinsic fluorescence.

Assay [4] deals with T4, mSTING-R232 (aa139-378) (Mus musculus, UniProt Q3TBT3).
T4 construct: mSTING-R232 (aa139-378); 6xHis-SUMO; made in house
T4 sequence (Q3TBT3 139-378): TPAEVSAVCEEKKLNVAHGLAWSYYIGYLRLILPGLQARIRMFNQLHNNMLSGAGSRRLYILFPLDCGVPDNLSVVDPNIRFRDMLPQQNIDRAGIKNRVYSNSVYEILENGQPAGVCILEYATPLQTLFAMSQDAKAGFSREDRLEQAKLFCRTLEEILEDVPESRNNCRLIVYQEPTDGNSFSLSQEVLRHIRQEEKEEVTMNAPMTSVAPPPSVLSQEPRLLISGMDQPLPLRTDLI
The experiment in a line: STING Differential Scanning Fluorimetry (DSF) assay, mouse. It is filed as binding. To be noted: 5 μM protein. How it is done: A STING DSF assay was performed to determine protein thermostability shift in response to small molecule ligand binding. A STING thermostability shift assay based on differential scanning fluorimetry was used to measure (1) the net shift in melting temperature (ΔTm)between the apo and ligand-bound states of the STING protein and (2) the concentration of the thermal denaturation transition (FC50) as a surrogate measure of binding affinity (Kd). Briefly, recombinant mouse or human STING protein (aa140-379) comprising the C-terminal binding domain (R232-WT) were purified by affinity chromatography and further processed to remove the purification tag, followed by gel filtration to achieve purity >95%. Protein in assay buffer was transferred to a 384 well plate and incubated with the hydrophobic fluorescent dye SYBR Orange. A temperature ramp was applied to the plate and the resulting dye fluorescence was plotted as a function of temperature. The first derivative of this function (dF/dT) was then used to extrapolate the melting temperature of the protein at various concentrations of compound and determine the thermal denaturation profile of a protein/compound complex.
2. 5 μM purified Target STING Protein
4. Buffer: 100 mM NaCl, 30 mM HEPES, pH 7.5
5. Thermal Ramp: 0.5° C./min
7. 11 point, 2 fold dilution, duplicate, 300 μM high concentrations

The target in assay [5] is T5, STING protein (Homo sapiens, UniProt Q86WV6, H232R).
T5 construct: host or cells: THP-1 dual reporter cells, TMEM173 modified from HAQ to R232 (THP1-dual-KI R232)
Kind of assay: Cell based reporter assay of IRF activation (THP1-dual-KI R232, IRF luciferase). To be noted: THP-1; read-out: THP1-dual-KI R232_IRF(Luciferase)_Activity Maximum measured (%). The essentials:
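THP-1 monocytes stably carried an ISG54/5×ISRE firefly luciferase IRF reporter, with TMEM173 knock-in H71R A230G Q293R (R232 variant), and there was no PMA pre-activation. Compounds were tested at 8 points, 2-fold, in duplicate from 150 µM. Cell Titer Glo was applied after supernatant removal.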
For orientation: In a reporter assay the amount or activity of a reporter protein is the signal.

T1 sequence (Q86WV6 140-379 H232R): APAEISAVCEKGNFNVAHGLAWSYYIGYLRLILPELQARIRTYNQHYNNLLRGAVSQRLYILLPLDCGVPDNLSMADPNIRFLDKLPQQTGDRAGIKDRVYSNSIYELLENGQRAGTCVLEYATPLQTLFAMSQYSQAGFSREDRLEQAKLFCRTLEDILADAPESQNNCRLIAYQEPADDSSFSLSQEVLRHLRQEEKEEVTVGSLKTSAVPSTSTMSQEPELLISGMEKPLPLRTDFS
T3 sequence (Q86WV6 140-379 H232R): as above
T5 sequence (Q86WV6 whole entry H232R): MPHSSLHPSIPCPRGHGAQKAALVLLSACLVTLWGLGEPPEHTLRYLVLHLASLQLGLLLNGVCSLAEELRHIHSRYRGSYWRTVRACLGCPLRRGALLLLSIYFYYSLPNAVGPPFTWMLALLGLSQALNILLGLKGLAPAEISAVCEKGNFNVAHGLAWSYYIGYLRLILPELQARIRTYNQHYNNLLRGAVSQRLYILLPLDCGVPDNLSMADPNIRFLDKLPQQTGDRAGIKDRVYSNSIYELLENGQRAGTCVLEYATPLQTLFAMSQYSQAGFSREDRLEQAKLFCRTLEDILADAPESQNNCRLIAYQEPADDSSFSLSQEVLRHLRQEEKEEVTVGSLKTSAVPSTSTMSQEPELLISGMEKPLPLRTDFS

The IC50 is the point on the concentration scale where inhibition reaches its midpoint. Turning to `CCOc1c(Cl)ccc2c(=O)c3ccc(C(C)C)nc3n(CC(=O)O)c12` [Compound 3], the IC50 in assay [1] and in assay [2] was 20 to 100 µM in each case. Moreover, the “WT_DSF_hSWAT Tm Shift (° C.)” value in assay [3] is “D (“D” > 7° C.)”. For the same molecule, the “MOUSE DSF_6xHIS-SUMO Tm Shift (° C.)” value in assay [4] is on record as “C (“C” = 5-15° C.)”. The Emax in assay [5] was more than 50%.
In the case of `CCOc1c(Cl)ccc2c(=O)c3ccc(C)nc3n(CC(=O)O)c12` [Compound 2], the IC50 in assay [1] and in assay [2] was 100 to 300 µM in each case. Further, the “WT_DSF_hSWAT Tm Shift (° C.)” value in assay [3] is “C (“C” = 2-7° C.)”. Also, the “MOUSE DSF_6xHIS-SUMO Tm Shift (° C.)” value in assay [4] is given as “C (“C” = 5-15° C.)”. In assay [5], the Emax is more than 50%.
Regarding `Cc1ccc2c(=O)c3ccc(C(C)(C)C#N)nc3n(CC(=O)O)c2c1N(C)C` [Compound 64, sodium 2-(2-(2-cyanopropan-2-yl)-9-(dimethylamino)-8-methyl-5-oxobenzo[b][1,8]naphthyridin-10(5H)-yl)acetate], the IC50 in assay [1] lay within 20 to 100 µM. Also, the “WT_DSF_hSWAT Tm Shift (° C.)” value in assay [3] is “D (“D” > 7° C.)”. Moreover, the Emax in assay [5] was more than 50%.
For `CCN(c1ccc2c(=O)c3ccc(Cl)c(SC)c3n(CC(=O)O)c2n1)C1COC1` [Compound 30, sodium 2-(8-chloro-2-(ethyl(oxetan-3-yl)amino)-9-(methylthio)-5-oxobenzo[b][1,8]naphthyridin-10(5H)-yl)acetate], in that order: less than 20 µM, “D (“D” > 7° C.)” and more than 50%.
In the same order, the values of `CO[C@H]1C[C@@H](N(C)c2ccc3c(=O)c4ccc(C)c(N(C)C)c4n(CC(=O)O)c3n2)C1` [Compound 67, 2-(9-(dimethylamino)-2-(((1s,3s)-3-methoxycyclobutyl)(methyl)amino)-8-methyl-5-oxobenzo[b][1,8]naphthyridin-10(5H)-yl)acetic acid] are less than 20 µM, “D (“D” > 7° C.)” and more than 50%.
For `COCCN(c1ccc2c(=O)c3ccc(Cl)c(SC)c3n(CC(=O)O)c2n1)[C@H]1C[C@@H](OC)C1` [Compound 74, sodium 2-(8-chloro-2-(((1s,3s)-3-methoxycyclobutyl)(2-methoxyethyl)amino)-9-(methylthio)-5-oxobenzo[b][1,8]naphthyridin-10(5H)-yl)acetate], in that order: 100 to 300 µM, “D (“D” > 7° C.)” and more than 50%.
For `COCCN(CC(F)(F)F)c1ccc2c(=O)c3ccc(Cl)c(SC)c3n(CC(=O)O)c2n1` [Compound 50, sodium 2-(8-chloro-2-((2-methoxyethyl)(2,2,2-trifluoroethyl)amino)-9-(methylthio)-5-oxobenzo[b][1,8]naphthyridin-10(5H)-yl)acetate], in assay [1], the concentration for half-maximal inhibition (IC50) fell in the range of 20 to 100 µM. In assay [3], the “WT_DSF_hSWAT Tm Shift (° C.)” value is given as “D (“D” > 7° C.)”. Further, in assay [5], the Emax is more than 50%.
In the same order, the values of `COc1c(Cl)ccc2c(=O)c3ccc(C(C)C)nc3n(CC(=O)O)c12` [Compound 1] are 100 to 300 µM, “D (“D” > 7° C.)” and more than 50%.
For `CSc1c(Cl)ccc2c(=O)c3ccc(C(C)(C)C#N)nc3n(CC(=O)O)c12` [Compound 24, sodium 2-(8-chloro-2-(2-cyanopropan-2-yl)-9-(methylthio)-5-oxobenzo[b][1,8]naphthyridin-10(5H)-yl)acetate], in that order: 20 to 100 µM, “D (“D” > 7° C.)” and more than 50%.
